This is an account of results in US10464922B2, “Metalloenzyme inhibitor compounds” (NQP 1598 LTD., priority 2015, dated 2019).

The MIC is the least concentration at which growth counts as inhibited.

In assay [1] the test system is C. albicans (ATCC 90028). Briefly: Minimum inhibitory concentration, in vitro broth microdilution assay (CLSI M27-A2). Format: cell-based, Candida albicans. To be noted: ATCC 90028, about 50% growth reduction, 2 days at 36° C., range tested 8-0.0078 μg/mL, values given as ranges; for MIC: Candida albicans, ATCC90028, 48 h, read-out: Candida albicans MIC. The protocol:
The antifungal potency of the test compounds was measured using the in vitro broth microdilution assay under assay conditions described by the Clinical and Laboratory Standards Institute (CLSI M27-A2). The test compounds were dissolved in 100% DMSO, suspended completely by sonication or vortexing, diluted by 2-fold serial titrations in the same vehicle, for a total of 11 test concentrations. A 4 μL aliquot of each dilution was added to 196 μL of RPMI-1640+MOPS medium seeded with the C. albicans (ATCC 90028) suspension in wells of a 96 well plate (fungal cell count: 1×10^3 to 1×10^4 colony forming units per mL). The final volume was 200 μL in each well and the final DMSO concentration was 2 percent. The inoculated plates were incubated for 2 days at 36° C. Following incubation, the test plates were visually examined and wells were scored for growth to define the minimum inhibitory concentration. […] Each test substance was evaluated in duplicate. Vehicle-control and an active reference agent (e.g., posaconazole) were used as blank and positive controls, respectively.
Background: In broth dilution the organism is exposed to a series of concentrations in liquid medium.

Assay [2] deals with A. fumigatus. Briefly: A. fumigatus MIC at 100% growth inhibition (CLSI M38-A2). Format: cell-based, Aspergillus fumigatus. To be noted: 100% growth inhibition, range tested 8-0.0078 μg/mL, values given as ranges; for MIC: Aspergillus fumigatus, read-out: Aspergillus fumigatus MIC. The protocol: A. fumigatus MICs were determined at 100% growth inhibition following CLSI guidelines at a concentration range of 8-0.0078 μg/mL (CLSI M38-A2).

≈ marks a conversion by molar mass, not a printed value.

Take `OC(c1cn(-c2ccc(N3CCN(c4ccc(-c5ccc(C(F)(F)C(O)(Cn6cnnn6)c6ccccc6F)nc5)cc4)CC3)cn2)nn1)C(F)(F)F` (single isomer, unassigned; (-)) [110(−), (−)-1,1-difluoro-2-(2-fluorophenyl)-3-(1H-tetrazol-1-yl)-1-(5-(4-(4-(6-(4-(2,2,2-trifluoro-1-hydroxyethyl)-1H-1,2,3-triazol-1-yl)pyridin-3-1)piperazin-1-yl)phenyl)pyridin-2-yl) propan-2-ol]: the “Candida albicans MIC” value in assay [1] was greater than 8 µg/mL. For the same compound, the “Aspergillus fumigatus MIC” value in assay [2] was greater than 8 µg/mL.

As to `OC(CC(F)(F)F)c1ccc(N2CCN(c3ccc(-c4ccc(C(F)(F)[C@](O)(Cn5cnnn5)c5cccc(F)c5)nc4)cc3)CC2)cn1` (single isomer, unassigned; (-)) [119(−)], the MIC in assay [1] was 0.1 to 1 µg/mL (≈ 0.146 to 1.46 µM); in assay [2] it was greater than 8 µg/mL.

In the case of `OC(CC(F)(F)F)c1ccc(N2CCN(c3ccc(-c4ccc(C(F)(F)[C@](O)(Cn5cncn5)c5ccc(F)cc5F)nc4)cc3)CC2)cn1` (single isomer, unassigned; (-)) [120(−)], the minimum inhibitory concentration (MIC) in assay [1] lay within 0.01 to 0.1 µg/mL (≈ 0.0143 to 0.143 µM). For the same compound, the “Aspergillus fumigatus MIC” value in assay [2] lay within 0.25 to 1.0 µg/mL.

Take `OC(CC(F)(F)F)c1ccc(N2CCN(c3ccc(-c4ccc(C(F)(F)[C@](O)(Cn5cnnn5)c5ccc(F)cc5)nc4)cc3)CC2)cn1` (single isomer, unassigned; (-)) [121(−)]: the “Candida albicans MIC” value in assay [1] was 0.10 to 1.0 µg/mL. Moreover, the “Aspergillus fumigatus MIC” value in assay [2] was greater than 8 µg/mL.

Turning to `OC(CC(F)(F)F)c1ccc(N2CCN(c3ccc(-c4ccc(C(F)(F)[C@](O)(Cn5cnnn5)c5ccccc5F)nc4)cc3)CC2)cn1` (single isomer, unassigned; (-)) [122(−)], in assay [1], the “Candida albicans MIC” value fell in the range of 1.0 to 8.0 µg/mL. Further, the “Aspergillus fumigatus MIC” value in assay [2] is greater than 8 µg/mL.

Regarding `CC[C@@H]([C@H](C)O)n1ncn(-c2ccc(N3CCN(c4ccc(-c5ccc(C(F)(F)C(O)(Cn6cncn6)c6ccc(F)cc6F)nc5)cc4)CC3)cc2)c1=O` (single isomer, unassigned; (-)) [123(−)], the MIC in assay [1] fell in the range of 0.01 to 0.1 µg/mL (≈ 0.0132 to 0.132 µM). In addition, the “Aspergillus fumigatus MIC” value in assay [2] was 0.25 to 1.0 µg/mL.

For the compound `OC(c1ccc(N2CCN(c3ccc(-c4ccc(C(F)(F)C(O)(Cn5cnnn5)c5cc(F)ccc5F)nc4)cc3)CC2)cc1)C(F)(F)F` (stereo not drawn) [15(+)], in assay [1], the “Candida albicans MIC” value is no more than 0.0078 to 0.010 µg/mL. Further, in assay [2], the “Aspergillus fumigatus MIC” value lay within 0.25 to 1.0 µg/mL.

Consider `OC(c1ccc(N2CCN(c3ccc(-c4ccc(C(F)(F)C(O)(Cn5cnnn5)c5cc(F)ccc5F)nc4)cc3)CC2)cc1)C(F)(F)F` (stereo not drawn) [15(−), 2-(2,5-difluorophenyl)-1,1-difluoro-3-(1H-tetrazol-1-yl)-1-(5-(4-(4-(4-(2,2,2-trifluoro-1-hydroxyethyl)phenyl)piperazin-1-yl)phenyl)pyridin-2-yl) propan-2-ol], for which the “Candida albicans MIC” value in assay [1] was in the range of 0.10 to 1.0 µg/mL. In assay [2], the “Aspergillus fumigatus MIC” value was greater than 8 µg/mL.

As for `CC[C@@H]([C@H](C)O)n1ncn(-c2ccc(N3CCN(c4ccc(-c5ccc(C(F)(F)[C@](O)(Cn6cnnn6)c6ccccc6F)nc5)cc4)CC3)cn2)c1=O` [102(+), 4-(5-(4-(4-(6-((R)-1,1-difluoro-2-(2-fluorophenyl)-2-hydroxy-3-(1H-tetrazol-1-yl)propyl)pyridin-3-yl)phenyl)piperazin-1-yl)pyridin-2-yl)-2-((2S,3S)-2-hydroxypentan-3-yl)-2,4-dihydro-3H-1,2,4-triazol-3-one], the “Candida albicans MIC” value in assay [1] is no more than 0.0078 to 0.010 µg/mL. In addition, in assay [2], the “Aspergillus fumigatus MIC” value was in the range of 0.25 to 1.0 µg/mL.

Regarding `CC[C@@H]([C@H](C)O)n1ncn(-c2ccc(N3CCN(c4ccc(-c5ccc(C(F)(F)[C@](O)(Cn6cnnn6)c6ccccc6F)nc5)cc4)CC3)cn2)c1=O` [102(−), 4-(5-(4-(4-(6-((R)-1,1-difluoro-2-(2-fluorophenyl)-2-hydroxy-3-(1H-tetrazol-1-yl)propyl)pyridin-3-yl)phenyl)piperazin-1-yl)pyridin-2-yl)-2-((2S,3S)-2-hydroxypentan-3-yl)-2,4-dihydro-3H-1,2,4-triazol-3-one], the “Candida albicans MIC” value in assay [1] was 0.10 to 1.0 µg/mL. Also, in assay [2], the “Aspergillus fumigatus MIC” value was greater than 8 µg/mL.

As to `CC[C@@H]([C@H](C)O)n1ncn(-c2ccc(N3CCN(c4ccc(-c5ccc(C(F)(F)[C@](O)(Cn6cnnn6)c6ccc(F)cc6)nc5)cc4)CC3)cn2)c1=O` [109(+), (+)-4-(5-(4-(4-(6-((R)-1,1-difluoro-2-(4-fluorophenyl)-2-hydroxy-3-(1H-tetrazol-1-yl)propyl)pyridin-3-yl)phenyl)piperazin-1-yl)pyridin-2-yl)-2-((2S,3S)-2-hydroxypentan-3-yl)-2,4-dihydro-3H-1,2,4-triazol-3-one], in assay [1], the “Candida albicans MIC” value is no more than 0.0078 to 0.010 µg/mL. In addition, the “Aspergillus fumigatus MIC” value in assay [2] was in the range of 0.25 to 1.0 µg/mL.

With `CC[C@@H]([C@H](C)O)n1ncn(-c2ccc(N3CCN(c4ccc(-c5ccc(C(F)(F)[C@](O)(Cn6cnnn6)c6ccc(F)cc6)nc5)cc4)CC3)cn2)c1=O` [109(−), (−)-4-(5-(4-(4-(6-((R)-1,1-difluoro-2-(4-fluorophenyl)-2-hydroxy-3-(1H-tetrazol-1-yl)propyl)pyridin-3-yl)phenyl)piperazin-1-yl)pyridin-2-yl)-2-((2S,3S)-2-hydroxypentan-3-yl)-2,4-dihydro-3H-1,2,4-triazol-3-one], the “Candida albicans MIC” value in assay [1] is 0.10 to 1.0 µg/mL. In addition, the “Aspergillus fumigatus MIC” value in assay [2] lay in the range of 1.0 to 4.0 µg/mL.

Consider `N#Cc1ccc(N2CCN(c3ccc(-c4ccc(C(F)(F)[C@](O)(Cn5cnnn5)c5ccc(F)cc5F)nc4)cc3)CC2)cc1` [Example 1, (R)-4-(4-(4-(6-(2-(2,4-difluorophenyl)-1,1-difluoro-2-hydroxy-3-(1H-tetrazol-1-yl)propyl)pyridin-3-yl)phenyl)piperazin-1-yl) benzonitrile], for which the MIC in assay [1] was in the range of 0.0078 to 0.01 µg/mL (≈ 0.0127 to 0.0163 µM); in assay [2], 0.25 to 1 µg/mL (≈ 0.407 to 1.63 µM).

For the compound `O[C@@](Cn1cnnn1)(c1ccc(F)cc1F)C(F)(F)c1ccc(-c2ccc(N3CCN(c4ccc(F)cc4)CC3)cc2)cn1` [Example 2, (R)-2-(2,4-difluorophenyl)-1,1-difluoro-1-(5-(4-(4-(4-fluorophenyl)piperazin-1-yl)phenyl)pyridin-2-yl)-3-(1H-tetrazol-1-yl) propan-2-ol], the MIC lay within 0.0078 to 0.01 µg/mL (≈ 0.0128 to 0.0165 µM) in assay [1] and 0.25 to 1 µg/mL (≈ 0.411 to 1.65 µM) in assay [2].

Take `OC(c1ccc(N2CCN(c3ccc(-c4ccc(C(F)(F)[C@](O)(Cn5cnnn5)c5ccc(F)cc5F)nc4)cc3)CC2)cc1)C(F)(F)F` (stereo partly drawn) [Example 3, (2R)-2-(2,4-difluorophenyl)-1,1-difluoro-3-(1H-tetrazol-1-yl)-1-(5-(4-(4-(4-(2,2,2-trifluoro-1-hydroxyethyl)phenyl)piperazin-1-yl)phenyl)pyridin-2-yl) propan-2-ol]: the minimum inhibitory concentration (MIC) in assay [1] is 0.0078 to 0.01 µg/mL (≈ 0.0113 to 0.0145 µM); in assay [2], 0.25 to 1 µg/mL (≈ 0.364 to 1.45 µM).

For `NC(c1ccc(N2CCN(c3ccc(-c4ccc(C(F)(F)[C@](O)(Cn5cnnn5)c5ccc(F)cc5F)nc4)cc3)CC2)cc1)C(F)(F)F` (stereo partly drawn) [Example 4, (2R)-1-(5-(4-(4-(4-(1-amino-2,2,2-trifluoroethyl)phenyl)piperazin-1-yl)phenyl)pyridin-2-yl)-2-(2,4-difluorophenyl)-1,1-difluoro-3-(1H-tetrazol-1-yl) propan-2-ol], the MIC lay within 0.01 to 0.1 µg/mL (≈ 0.0146 to 0.146 µM) in assay [1] and 0.25 to 1 µg/mL (≈ 0.364 to 1.46 µM) in assay [2].

Turning to `OC(c1ccc(N2CCN(c3ccc(-c4ccc(C(F)(F)[C@](O)(Cn5cnnn5)c5ccc(F)cc5F)nc4)cc3)CC2)cc1F)C(F)(F)F` (stereo partly drawn) [Example 5, (2R)-2-(2,4-difluorophenyl)-1,1-difluoro-1-(5-(4-(4-(3-fluoro-4-(2,2,2-trifluoro-1-hydroxyethyl)phenyl)piperazin-1-yl)phenyl)pyridin-2-yl)-3-(1H-tetrazol-1-yl) propan-2-ol], the values for the minimum inhibitory concentration (MIC) in assay [1] and in assay [2] were 0.0078 to 0.01 µg/mL (≈ 0.0111 to 0.0142 µM) and 0.25 to 1 µg/mL (≈ 0.354 to 1.42 µM), respectively.

Turning to `OC(c1ccc(N2CCN(c3ccc(-c4ccc(C(F)(F)[C@](O)(Cn5cnnn5)c5ccc(F)cc5F)nc4)cc3)CC2)cn1)C(F)(F)F` (stereo partly drawn) [Example 6, (2R)-2-(2,4-difluorophenyl)-1,1-difluoro-3-(1H-tetrazol-1-yl)-1-(5-(4-(4-(6-(2,2,2-trifluoro-1-hydroxyethyl)pyridin-3-yl)piperazin-1-yl)phenyl)pyridin-2-yl) propan-2-ol], the “Candida albicans MIC” value in assay [1] is no more than 0.0078 to 0.010 µg/mL. For the same compound, in assay [2], the “Aspergillus fumigatus MIC” value was in the range of 0.25 to 1.0 µg/mL.

As to `N#Cc1ccc(N2CCN(c3ccc(-c4ccc(C(F)(F)[C@](O)(Cn5cnnn5)c5ccc(F)cc5F)nc4)cc3)CC2)cn1` [Example 7, (R)-5-(4-(4-(6-(2-(2,4-difluorophenyl)-1,1-difluoro-2-hydroxy-3-(1H-tetrazol-1-yl)propyl)pyridin-3-yl)phenyl)piperazin-1-yl) picolinonitrile], the values for the minimal inhibitory concentration (MIC) in assay [1] and in assay [2] were 0.0078 to 0.01 µg/mL (≈ 0.0127 to 0.0162 µM) and 0.25 to 1 µg/mL (≈ 0.406 to 1.62 µM), respectively.

As to `N#Cc1ccc(N2CCN(c3ccc(-c4ccc(C(F)(F)[C@](O)(Cn5cnnn5)c5ccc(F)cc5F)nc4)cc3)CC2)cc1F` [Example 8, (R)-4-(4-(4-(6-(2-(2,4-difluorophenyl)-1,1-difluoro-2-hydroxy-3-(1H-tetrazol-1-yl)propyl)pyridin-3-yl)phenyl)piperazin-1-yl)-2-fluorobenzonitrile], the MIC lay in the range of 0.0078 to 0.01 µg/mL (≈ 0.0123 to 0.0158 µM) in assay [1] and 0.25 to 1 µg/mL (≈ 0.395 to 1.58 µM) in assay [2].
